The assay has as its system 926638-142-R-J1-PDC complex spheroid viability. Briefly: Anticancer human tumor 926638-142-R-J1-PDC patient-derived endometrial carcinoma cell line growth inhibition [POLQ]. The settings on record: for viability, T/C: stronger effect = lower value. The protocol:
Multicellular complex tumor spheroid response to Polymerase (POL) inhibitors (novobiocin, ART-558, RP6685) in combination with a variety of drugs and investigational agents in selected tumor cell lines
The POL inhibitors (novobiocin, ART-558, and RP6685) were evaluated both individually and in combination with standard of care and investigational anticancer small molecules within a complex spheroid model of solid tumors. . Complex spheroids include a stromal component modeled by human endothelial cells (HUVEC) and fibroblasts modeled by human mesenchymal stem cells (MSCs). The concentration ranges selected for each drug and investigational agent were based upon clinically achievable concentrations if the clinical Cmax of the agent was known.
Compounds. The drugs and investigational agents: novobiocin (NSC847541), ART-558 (NSC835418), RP-6685 (NSC848927), peposertib (NSC802822), ceralasertib (NSC780249), elimusertib (NSC800525), camonsertib (NSC841442), AZD-1390 (NSC803789), olaparib (NSC753686), talazoparib (NSC767125), rucaparib (NSC756644), sotorasib (NSC818433), MRTX-1133 (NSC836407), SN-38 (NSC673596), topotecan (NSC609699), epotoside (NSC141540), doxorubicin (NSC123127), gemcitabine (NSC613327), 5-fluorouracil (NSC19893), paclitaxel (NSC125973), vemurafenib (NSC761431), MSA-2 (NSC828583), SN-011 (NSC837082), adavosertib (NSC754352), prexasertib (NSC758257), carboplatin (NSC241240) and oxaliplatin (NSC266046), were obtained from the National Cancer Institute (NCI) Developmental Therapeutics Program Chemical Repository (21). The FDA-approved anticancer drug set is available from the Developmental Therapeutics Program at https://dtp.cancer.gov/organization/dscb/obtaining/. […] The stock solutions were prepared in dimethyl sulfoxide (DMSO, Sigma-Aldrich, St. Louis, MO, cat. D2650), except for the platinum compounds which were prepared in saline (Quality Biological, Gaithersburg, MD, cat. 114-055-101), at 800-fold the tested concentration and stored at -70 degrees C prior to their use. All drugs and investigational agents were tested over a range starting from a high concentration at or near the clinical Cmax and decreasing in half-log increments. If the clinical Cmax for an agent had not been determined, the highest concentration tested was 10 microM, except for SN-38, which was tested at a high concentration of 1 microM.
Cell Culture. All cells were maintained in an incubator at 37 degrees C and 5% CO2 with 95% humidity. The PDC lines were cultured according to standard operating procedures established by the NCI PDMR (https://pdmr.cancer.gov). Table 3 of the manuscript, lists the cell lines along with the number of the three cell types plated to form the mct-spheroids and media for tumor cell growth. After thawing, all PDC lines, except 997537-175-T-J1-PDC and 415267-285-R-J2-PDC, were cultured in Matrigel-coated flasks prepared with a working solution of 1X Ham's F-12 nutrient mix, without supplementation (Thermo Fisher Scientific, cat. 11765054), 100 U/mL penicillin-streptomycin (Thermo Fisher Scientific, cat. 15140122), and 2.5% Matrigel (Corning Inc., Corning, NY, cat. 354248) for the first three passages. The two PDC lines 997537-175-T-J1-PDC and 415267-285-R-J2-PDC were cultured on uncoated flasks. The 857933-349-R-J2-PDC line was cultured in 6C/Colon 1B media containing advanced DMEM/F-12 (Thermo Fisher Scientific, cat. 12634028), 10 mM HEPES (Thermo Fisher Scientific, cat. 15630080), 1X GlutaMAX supplement (Thermo Fisher Scientific, cat. 35050061), 0.1 mg/mL primocin (InvivoGen, San Diego, CA, cat. ant-pm-2), 10% defined fetal bovine serum, heat inactivated (HyClone Laboratories Inc., Logan, UT, cat. SH30070.03HI), 50% L-WRN conditioned media (ATCC, cat. CRL-3276), 1.25 mM N-Acetyl-L-cysteine (Sigma-Aldrich, cat. A9165), 10 mM nicotinamide (Sigma-Aldrich, cat. N0636), 1X B-27 supplement (Thermo Fisher Scientific, cat. 17504044), 1X N-2 supplement (Thermo Fisher Scientific, cat. […]

Where [1] appears, read: curve of first compound, second compound 0.0316 µM.
Setting [2] is: curve of first compound, second compound 0.1 µM.
Setting [3] is: curve of first compound, second compound 0.316 µM.
The mark [4] stands for this setting: curve of first compound, second compound 1 µM.
The mark [5] stands for this setting: curve of first compound, second compound 3.16 µM.
Where [6] appears, read: curve of first compound, second compound 10 µM.
Where [7] appears, read: second compound 0.0316 µM, first compound 0.0316 µM.
Setting [8] is: second compound 0.0316 µM, first compound 0.1 µM.
The mark [9] stands for this setting: second compound 0.0316 µM, first compound 0.316 µM.
Where [10] appears, read: second compound 0.0316 µM, first compound 1 µM.
The mark [11] stands for this setting: second compound 0.0316 µM, first compound 3.16 µM.
Setting [12] is: second compound 0.0316 µM, first compound 10 µM.
Where [13] appears, read: second compound 0.1 µM, first compound 0.0316 µM.
Where [14] appears, read: second compound 0.1 µM, first compound 0.1 µM.
The mark [15] stands for this setting: second compound 0.1 µM, first compound 0.316 µM.
[16] abbreviates: second compound 0.1 µM, first compound 1 µM.
[17] abbreviates: second compound 0.1 µM, first compound 3.16 µM.
[18] abbreviates: second compound 0.1 µM, first compound 10 µM.
The mark [19] stands for this setting: second compound 0.316 µM, first compound 0.0316 µM.
Where [20] appears, read: second compound 0.316 µM, first compound 0.1 µM.
The mark [21] stands for this setting: second compound 0.316 µM, first compound 0.316 µM.
Setting [22] is: second compound 0.316 µM, first compound 1 µM.
The mark [23] stands for this setting: second compound 0.316 µM, first compound 3.16 µM.
[24] abbreviates: second compound 0.316 µM, first compound 10 µM.
Where [25] appears, read: second compound 1 µM, first compound 0.0316 µM.
The mark [26] stands for this setting: second compound 1 µM, first compound 0.1 µM.
Where [27] appears, read: second compound 1 µM, first compound 0.316 µM.
The mark [28] stands for this setting: second compound 1 µM, first compound 1 µM.
[29] abbreviates: second compound 1 µM, first compound 3.16 µM.
Setting [30] is: second compound 1 µM, first compound 10 µM.
Setting [31] is: second compound 3.16 µM, first compound 0.0316 µM.
Setting [32] is: second compound 3.16 µM, first compound 0.1 µM.
Setting [33] is: second compound 3.16 µM, first compound 0.316 µM.
The mark [34] stands for this setting: second compound 3.16 µM, first compound 1 µM.
[35] abbreviates: second compound 3.16 µM, first compound 3.16 µM.
[36] abbreviates: second compound 3.16 µM, first compound 10 µM.
Setting [37] is: second compound 10 µM, first compound 0.0316 µM.
[38] abbreviates: second compound 10 µM, first compound 0.1 µM.
Setting [39] is: second compound 10 µM, first compound 0.316 µM.
Setting [40] is: second compound 10 µM, first compound 1 µM.
Setting [41] is: second compound 10 µM, first compound 3.16 µM.
[42] abbreviates: second compound 10 µM, first compound 10 µM.
Setting [43] is: compound alone, run of 01/19/2024.

Values joined by “and” are separate entries in the source; they are usually repeats but may differ in a detail not shown here. Identical values can stand only once. A value given as a limit tells only on which side of the number the result lay.
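Further: spheroids exposed to drugs for one week before readout.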
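Wherever viability, T/C is given: percent viability relative to DMSO vehicle control wells set as 100%.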

With `CC(C)n1c(=O)n(C)c2cnc3cc(F)c(-c4ccc(OCCCN5CCCCC5)nc4)cc3c21` + COC1C(OC(N)=O)C(O)C(Oc2ccc3c(O)c(NC(=O)c4ccc(O)c(CC=C(C)C)c4)c(=O)oc3c2C)OC1(C)C, the half-maximal inhibitory concentration (IC50) under setting [1] is greater than 10 µM; the IC50 under setting [2] was greater than 10 µM; the IC50 under setting [3] was greater than 10 µM; the IC50 under setting [4] is greater than 10 µM; the half-maximal inhibitory concentration (IC50) under setting [5] was greater than 10 µM; the half-inhibitory concentration (IC50) under setting [6] was greater than 10 µM. Further, the viability, T/C by setting is: under setting [7], 87.3%; under setting [8], 131%; under setting [9], 131%; under setting [10], 94.1%; under setting [11], 87.2%; under setting [12], 88.7%. For the same molecule, the viability, T/C runs as follows: under setting [13], 98.7%; under setting [14], 89.8%; under setting [15], 110%; under setting [16], 107%; under setting [17], 90.3%; under setting [18], 93.5%. For the same molecule, the viability, T/C under setting [19] was 101%; the viability, T/C under setting [20] is 104%; the viability, T/C under setting [21] was 108%; the viability, T/C under setting [22] was 90.2%; the viability, T/C under setting [23] is 86.6%; the viability, T/C under setting [24] is 89%. The viability, T/C reads like this: under setting [25], 119%; under setting [26], 104%; under setting [27], 104%; under setting [28], 119%; under setting [29], 81.9%; under setting [30], 90.2%. The viability, T/C was 87.4% under setting [31]; 107% under setting [32]; 101% under setting [33]; 109% under setting [34]; 88.2% under setting [35]; 105% under setting [36]. The viability, T/C was 114% under setting [37]; 104% under setting [38]; 114% under setting [39]; 100% under setting [40]; 89.5% under setting [41]; 78.5% under setting [42].

With `Nc1ccc(C#CCN(C(=O)Cc2ncc(C(F)(F)F)cc2C(F)(F)F)c2ccc(F)cc2)nn1`, the viability, T/C (compound 0.0316 µM) is 101% [middle of 13 runs]; the viability, T/C (compound 0.1 µM) is 101% [middle of 13 runs]; the viability, T/C (compound 1 µM) is 97.2% [middle of 13 runs]; the viability, T/C (compound 10 µM) is 99.8% [middle of 13 runs]. Moreover, the IC50 under setting [43] was greater than 10 µM.

In the case of `COc1cc(C2c3cc4c(cc3C(OC3OC5COC(C)OC5C(O)C3O)C3COC(=O)C23)OCO4)cc(OC)c1O` (centres undefined), the viability, T/C reads like this: (compound 0.0316 µM) 97.6% and 99% and 86.2%; (compound 0.1 µM) 79.6% (2×) and 77.2%; (compound 0.316 µM) 63.6% and 68.3% and 88.5%; (compound 1 µM) 67.9% and 82.5% and 80.7%; (compound 3.16 µM) 66.8% and 64.7% and 65.7%; (compound 10 µM) 65.4% and 55.2% and 55.3%. Besides, the IC50 (curve of compound) is greater than 10 µM.

On to `C=CC(=O)N1CCN(c2nc(=O)n(-c3c(C)ccnc3C(C)C)c3nc(-c4c(O)cccc4F)c(F)cc23)C(C)C1` (centres undefined), for which the viability, T/C (compound 0.0316 µM) was 73.8% and 100% and 104%; the viability, T/C (compound 0.1 µM) was 88.7% and 83.5% and 89.7%; the viability, T/C (compound 0.316 µM) is 75.7% and 108% and 103%; the viability, T/C (compound 1 µM) was 82.7% and 84.2% and 86.3%; the viability, T/C (compound 3.16 µM) was 72.6% and 88% and 81%; the viability, T/C (compound 10 µM) was 58.7% and 55% and 55.7%. Besides, the IC50 (curve of compound) was greater than 10 µM.

Regarding `Cc1cccc(N(C)C(=O)C2C(O)CCN2c2nc(C)cc(C(F)(F)F)c2C#N)c1` (centres undefined), the viability, T/C runs as follows: (compound 0.1 µM) 92.5% [middle of 13 runs]; (compound 0.316 µM) 94.9% [middle of 13 runs]. Further, the IC50 was greater than 10 µM (compound alone, run of 01/08/2024) and greater than 10 µM under setting [43].

For `CCc1cc2c(N3CCc4c(cc(Cn5ccnc5)cc4-c4cn(C)nc4C(F)(F)F)C3=O)ccnc2c(OC)n1`, the viability, T/C by setting is: (compound 0.0316 µM) 60.9% and 84.9% and 79%; (compound 0.1 µM) 79.4% and 67.7% and 61%; (compound 0.316 µM) 48% and 59.9% and 64.8%; (compound 1 µM) 43.1% and 45% and 49.4%; (compound 3.16 µM) 25.4% and 39.3% and 37.3%; (compound 10 µM) 27.3% and 29.5% and 28.1%. Moreover, for the setting “curve of compound”, the IC50 is 0.456 µM and 0.714 µM and 0.921 µM.

Consider `CNCc1ccc(-c2[nH]c3cc(F)cc4c3c2CCNC4=O)cc1` + Nc1ccc(C#CCN(C(=O)Cc2ncc(C(F)(F)F)cc2C(F)(F)F)c2ccc(F)cc2)nn1, for which the half-maximal inhibitory concentration (IC50) under setting [1] was greater than 10 µM; the IC50 under setting [2] is greater than 10 µM; the IC50 under setting [3] was greater than 10 µM; the IC50 under setting [4] is greater than 10 µM; the IC50 under setting [5] was greater than 10 µM; the IC50 under setting [6] was greater than 10 µM. In addition, the viability, T/C is 94.5% under setting [7]; 87.2% under setting [8]; 91.2% under setting [9]; 83.1% under setting [10]; 86.2% under setting [11]; 71.3% under setting [12]. Besides, the viability, T/C was 96.7% under setting [13]; 115% under setting [14]; 90.7% under setting [15]; 87.8% under setting [16]; 101% under setting [17]; 71.3% under setting [18]. The viability, T/C is 101% under setting [19]; 108% under setting [20]; 95% under setting [21]; 82.6% under setting [22]; 115% under setting [23]; 73.7% under setting [24]. Besides, the viability, T/C is 103% under setting [25]; 90.2% under setting [26]; 91.2% under setting [27]; 79.5% under setting [28]; 95.3% under setting [29]; 84.1% under setting [30]. Also, the viability, T/C is 102% under setting [31]; 89.5% under setting [32]; 101% under setting [33]; 80.1% under setting [34]; 93% under setting [35]; 71.1% under setting [36]. Further, the viability, T/C is, setting by setting: under setting [37], 90%; under setting [38], 81.4%; under setting [39], 93%; under setting [40], 95.1%; under setting [41], 98.7%; under setting [42], 73.1%.

One may read the IC50 as the concentration that inhibits the measured activity by half. In general, viability, T/C refers to the ratio of treated to control.

The values are drawn from PubChem BioAssay AID1963826 (Molecular Pharmacology Branch, DTP, NCI, 2024).
